Test results taken from the OPERA property sets (Mansouri et al. 2018).

Conditions: for log10 BCF / log10 biotransformation half-life (days): fish

CCOC(=O)C(C)(C)C(C)=O
boiling point: 182 °C

CCCC=O
log10 Henry constant (atm·m³/mol): -3.94
log10 Koa: 3.39
log10 vapour pressure (mmHg): 2.05
melting point: -99 °C
ready biodegradability: readily biodegradable

ClCC(Cl)CCl
boiling point: 157 °C
log10 Henry constant (atm·m³/mol): -3.46
log10 vapour pressure (mmHg): 0.567
melting point: -14.7 °C
ready biodegradability: not readily biodegradable
log10 BCF: 1.11
log10 biotransformation half-life (days): -0.53

CC(C)CC(C)(C)O
boiling point: 133 °C

Cc1ccc(S(=O)O)cc1
melting point: 86.5 °C

Cc1ncc(CO)c(N)n1
melting point: 198 °C

CC(=O)[C@@]1(O)CC[C@H]2[C@@H]3C[C@H](C)C4=CC(=O)CC[C@]4(C)[C@H]3CC[C@@]21C
melting point: 214 °C

CC1CNC(=S)N1 (stereo not drawn)
log10 BCF: 1

O=Cc1cccc2c1CCOC2=O
melting point: 140 °C

CC(C)(C)C(=O)O
boiling point: 164 °C
log10 Henry constant (atm·m³/mol): -5.56
log10 vapour pressure (mmHg): -0.301
melting point: 35 °C
ready biodegradability: not readily biodegradable
log10 BCF: 0.36

CC1=CCCC(=O)C1
boiling point: 201 °C
melting point: -21 °C

O=C(O)C(F)(F)C(F)(F)C(=O)O
melting point: 119 °C

O=C(c1ccccc1)c1cccc(C(F)(F)F)c1
melting point: 52.5 °C

FC(Cl)(Cl)CCl
boiling point: 88 °C
melting point: -140 °C

C[C@H]1C=CC2C(C1)C2(C)C (stereo in doubt)
boiling point: 169 °C

OCC1CCCO1 (stereo not drawn)
boiling point: 178 °C
log10 vapour pressure (mmHg): -0.0964
ready biodegradability: readily biodegradable

Nc1nc(N)nc(-c2cc(Cl)ccc2Cl)n1
melting point: 268 °C

Clc1nc2ccccc2s1
boiling point: 248 °C
melting point: 24 °C

Cn1c(=O)c2c(ncn2CN2CCOCC2)n(C)c1=O
melting point: 177 °C

CCC1(CC)C(=O)CCNC1=O
melting point: 104 °C

C=C(C)C(C)=O
boiling point: 98 °C
melting point: -54 °C

c1ccc2c(c1)ccc1ccc3ccccc3c12
melting point: 68 °C

Cc1cccc(NC(N)=O)c1
log10 Koc (L/kg): 1.56

CCN(CC)CCOC(=O)[C@@H]1N2C(=O)[C@@H](NC(=O)Cc3ccccc3)[C@H]2SC1(C)C.I
melting point: 178 °C

CCC1CCC(=O)CC1
boiling point: 193 °C

CCC(Cc1c(I)cc(I)c(O)c1I)C(=O)O (stereo not drawn)
melting point: 147 °C

Cc1cc(C)cc(C(C)(C)C)c1
boiling point: 207 °C
melting point: -18 °C

Clc1ccc2nccnc2c1
melting point: 64 °C

O=C(NN=Cc1ccc([N+](=O)[O-])o1)c1ccc(O)cc1
melting point: 298 °C

CCOC(=O)c1ccc(OCC)cc1
boiling point: 275 °C

O=Cc1ccc[nH]1
boiling point: 218 °C
melting point: 46.5 °C

CCC(C)(C)N
boiling point: 77 °C
melting point: -105 °C

O=[N+]([O-])c1cccc2c(Cl)cccc12
melting point: 111 °C

O=C1OC(c2ccc(O)c3ccccc23)(c2ccc(O)c3ccccc23)c2ccccc21
melting point: 254 °C

CC(C)(N)C(=O)O
melting point: 335 °C

CC(C)N1C(=O)c2ccccc2NS1(=O)=O
log10 Koc (L/kg): 1.52
melting point: 138 °C

CNC(=O)CC(C)=O
ready biodegradability: readily biodegradable

COc1ccccc1OP(=O)(Oc1ccccc1OC)Oc1ccccc1OC
melting point: 91 °C

CCCCCCCCCCCCCCCCCCCCCC(N)=O
ready biodegradability: not readily biodegradable

CC=CCCCCC
boiling point: 124 °C
log10 vapour pressure (mmHg): 1.21
melting point: -80 °C

CCC(=O)OCC1CCCO1 (stereo not drawn)
boiling point: 206 °C

COc1ccc([C@@H]2CC(=O)c3c(O)cc(O[C@@H]4O[C@H](CO[C@@H]5O[C@@H](C)[C@H](O)[C@@H](O)[C@H]5O)[C@@H](O)[C@H](O)[C@H]4O)cc3O2)cc1O
melting point: 262 °C

O=C(Cl)c1c(F)c(F)c(F)c(F)c1F
boiling point: 158 °C

O=C(Cl)c1cccc(C(F)(F)F)c1
boiling point: 187 °C

O=C(O)[C@H](O)[C@@H](O)C(=O)O
ready biodegradability: readily biodegradable

NC(=O)NO
melting point: 141 °C

COc1ccc2c(c1OC)CN(C)CCc1cc3c(cc1C(=O)C2)OCO3
melting point: 160 °C

Oc1ccc(Cl)cc1Cc1ccccc1
log10 vapour pressure (mmHg): -5.85
melting point: 48.5 °C
ready biodegradability: readily biodegradable

CCCCCCCCON=O
boiling point: 174 °C

CCON=O
boiling point: 18 °C

CP(=O)(c1ccccc1)c1ccccc1
melting point: 113 °C

C#C[C@]1(O)CC[C@H]2[C@@H]3CCC4=CC(=O)CC[C@]4(C)[C@H]3CC[C@@]21C
melting point: 272 °C

Oc1ccc(Cl)cc1Sc1cc(Cl)ccc1O
melting point: 174 °C

c1ccc2cc3c4ccccc4c4ccccc4c3cc2c1
boiling point: 524 °C
log10 vapour pressure (mmHg): -10
melting point: 206 °C

C=C(C)[C@@H]1CC[C@]2(C)CC[C@]3(C)[C@H](CC[C@@H]4[C@@]5(C)CC[C@H](O)C(C)(C)[C@@H]5CC[C@]43C)[C@@H]12
melting point: 216 °C

CCCC(O)CC/C=C/C=C/C#CC#C/C=C/CO (stereo not drawn)
melting point: 87 °C

C#C[C@]1(O)CC[C@H]2[C@@H]3CCc4cc(O)ccc4[C@H]3CC[C@@]21C
melting point: 183 °C

CCCN(CCC)c1c([N+](=O)[O-])cc(C)cc1[N+](=O)[O-]
melting point: 80 °C

CCCCC(C)(C)O
boiling point: 143 °C
log10 vapour pressure (mmHg): 0.317

Cc1cc(C)c([N+](=O)[O-])cc1C
boiling point: 265 °C
melting point: 71 °C

S=c1sc2nc3ccccc3nc2s1
melting point: 180 °C

CCCCOC(=O)C(C)Oc1ccc(Oc2ccc(C(F)(F)F)cn2)cc1 (stereo not drawn)
log10 Koc (L/kg): 3.62
log10 vapour pressure (mmHg): -6.5
melting point: 9 °C

CCCCSSCCCC
log10 vapour pressure (mmHg): -1.2

C[Si]1(C)N[Si](C)(C)N[Si](C)(C)N1
boiling point: 188 °C
melting point: -10 °C

BrCCCOc1ccccc1
melting point: 10.7 °C

O=CC[C@@H](O)C(O)[C@H](O)CO (stereo in doubt)
melting point: 146 °C

O=[N+]([O-])c1ccc(Oc2ccc(C(F)(F)F)cc2Cl)cc1
melting point: 68 °C

CCOO
boiling point: 95 °C
log10 Henry constant (atm·m³/mol): -5.53
melting point: -100 °C

O=C(O)/C=C/CCl
melting point: 83 °C

CNc1ccccc1[N+](=O)[O-]
melting point: 38 °C

Clc1cccc(Cl)n1
boiling point: 211 °C
melting point: 88 °C
ready biodegradability: not readily biodegradable

S=C(Nc1cccc2ccccc12)Nc1cccc2ccccc12
melting point: 208 °C

C=C(C)C
boiling point: -6.9 °C
log10 Henry constant (atm·m³/mol): -0.662
log10 vapour pressure (mmHg): 3.36
melting point: -140 °C

CCCCCCOc1ccc(O)cc1
melting point: 46 °C

Clc1ccc(/N=N/c2ccccc2)cc1
log10 vapour pressure (mmHg): -5.7
melting point: 88 °C

Clc1cccc(-c2cccc(Cl)c2Cl)c1Cl
log10 Henry constant (atm·m³/mol): -4
log10 vapour pressure (mmHg): -4.13
log10 BCF: 4.23
log10 biotransformation half-life (days): 2

Clc1ccc(Oc2c(Cl)cccc2Cl)cc1
log10 vapour pressure (mmHg): -3.66

Cc1ccc(C(C)C)cc1O
boiling point: 238 °C
melting point: 1 °C

CC(I)I
boiling point: 180 °C

CC1=CCC2C(=O)OC(=O)C2C1 (stereo not drawn)
ready biodegradability: not readily biodegradable

CCCCCCc1cccc2ccccc12
boiling point: 322 °C
melting point: -18 °C

O=S(=O)(Cl)c1ccccc1
boiling point: 252 °C
log10 vapour pressure (mmHg): -1.24
melting point: 14.5 °C

CC(C)=CCC1C(=O)N(c2ccccc2)N(c2ccccc2)C1=O
melting point: 156 °C

CCn1ccc(NS(=O)(=O)c2ccc(N)cc2)nc1=O
melting point: 166 °C

CCOCCOC(=O)C(C)Oc1ccc(Oc2ncc(C(F)(F)F)cc2Cl)cc1 (stereo not drawn)
log10 vapour pressure (mmHg): -10.9
melting point: 60 °C

O=C1/C(=C2\Nc3c(Br)cc(Br)cc3C2=O)Nc2c(Br)cc(Br)cc21
log10 vapour pressure (mmHg): -11.1

CCCCCCCCCCCCCCCc1cccc(O)c1
melting point: 53.5 °C
ready biodegradability: readily biodegradable

C=C1N(C)c2ccccc2C1(C)C
boiling point: 248 °C

CCCCCCCCCCCCCCCCCCC#N
ready biodegradability: readily biodegradable

CCN(CC)c1c([N+](=O)[O-])cc(C(F)(F)F)c(N)c1[N+](=O)[O-]
log10 Koc (L/kg): 3.63
log10 vapour pressure (mmHg): -5.44
melting point: 98 °C

CCOP(=S)(OCC)Oc1nc(Cl)c(Cl)cc1Cl
log10 Henry constant (atm·m³/mol): -5.53
log10 Koc (L/kg): 3.7
log10 vapour pressure (mmHg): -4.69
melting point: 42 °C
ready biodegradability: not readily biodegradable
log10 BCF: 3.18
log10 biotransformation half-life (days): 0.77

Cc1cccc2[nH]ccc12
boiling point: 267 °C
melting point: 5 °C

C=C1C(O)CC2(C(C)C)CC12 (stereo not drawn)
boiling point: 208 °C

CCCCCCOCC
boiling point: 143 °C

c1cn[nH]c1
boiling point: 187 °C
melting point: 68 °C

CC1=NCCS1
boiling point: 145 °C
melting point: -101 °C

Cc1ccc([N+](=O)[O-])c2ccccc12
melting point: 71.5 °C

CCSc1nc(NC(C)C)nc(NC(C)C)n1
log10 Koc (L/kg): 3.07
log10 vapour pressure (mmHg): -5.8
melting point: 105 °C

COC(=O)C1C2C=CC(C2)C1C(=O)OC (stereo not drawn)
melting point: 38 °C

COCC(=O)N(c1c(C)cccc1C)N1CCOC1=O
log10 vapour pressure (mmHg): -7.61
melting point: 104 °C

O=C(NC(=O)c1c(F)cccc1F)Nc1ccc(Cl)cc1
log10 Koc (L/kg): 3.83
log10 vapour pressure (mmHg): -9.05
melting point: 239 °C
log10 BCF: 2.2

C[C@@H]1O[C@@H](O[C@H]2C[C@@H](O)[C@]3(CO)[C@H]4[C@H](O)C[C@]5(C)[C@@H](C6=CC(=O)OC6)CC[C@]5(O)[C@@H]4CC[C@]3(O)C2)[C@H](O)[C@H](O)[C@H]1O
melting point: 200 °C

CCC(C)(Cl)Cl
boiling point: 104 °C
melting point: -74 °C

O=C1CC(C(=O)O)=CO1
melting point: 164 °C

CCN(CC)C(=O)[C@@H]1C=C2c3cccc4[nH]c(Br)c(c34)C[C@H]2N(C)C1
melting point: 124 °C

NS(=O)(=O)c1ccc(S(=O)(=O)CCCO)c([N+](=O)[O-])c1
melting point: 169 °C

CCOC(=O)C(O)(c1ccccc1)c1ccccc1
melting point: 34 °C

Clc1cc2oc3c(Cl)c(Cl)c(Cl)cc3c2cc1Cl
log10 Koa: 10.4
log10 vapour pressure (mmHg): -8.58
melting point: 196 °C
log10 BCF: 4.13
log10 biotransformation half-life (days): 1.36

O=C1c2c(O)cccc2Cc2cccc(O)c21
melting point: 179 °C

O=C1CSC(=S)N1c1ccccc1
melting point: 194 °C

O=C(O)COc1cccc(Cl)c1Cl
melting point: 174 °C

CCCCCCCCCCOC(=O)Cl
boiling point: 220 °C
log10 vapour pressure (mmHg): -1.59

CCCCCCCCCCCCCCCCCCCCCCCCCCCCCCCCCCCCCC
boiling point: 512 °C
ready biodegradability: readily biodegradable

COc1ccc(C=O)c(OC)c1
boiling point: 290 °C
melting point: 72 °C

O=C(OC(=O)c1ccccc1)c1ccccc1
boiling point: 360 °C
log10 vapour pressure (mmHg): -3.93
melting point: 42.5 °C

Nc1ccn([C@@H]2O[C@H](COP(=O)(O)O)[C@@H](O)[C@@H]2O)c(=O)n1
melting point: 233 °C

CC(C)(C)c1ccccc1N
boiling point: 234 °C

Clc1ccc2c(c1)C(N1CCNCC1)=Nc1ccccc1O2
melting point: 176 °C
